pIC50: −log10 of the molar value.

Sequence of His-Tagged hOGA (human O-GlcNAcase) (O60502 whole entry): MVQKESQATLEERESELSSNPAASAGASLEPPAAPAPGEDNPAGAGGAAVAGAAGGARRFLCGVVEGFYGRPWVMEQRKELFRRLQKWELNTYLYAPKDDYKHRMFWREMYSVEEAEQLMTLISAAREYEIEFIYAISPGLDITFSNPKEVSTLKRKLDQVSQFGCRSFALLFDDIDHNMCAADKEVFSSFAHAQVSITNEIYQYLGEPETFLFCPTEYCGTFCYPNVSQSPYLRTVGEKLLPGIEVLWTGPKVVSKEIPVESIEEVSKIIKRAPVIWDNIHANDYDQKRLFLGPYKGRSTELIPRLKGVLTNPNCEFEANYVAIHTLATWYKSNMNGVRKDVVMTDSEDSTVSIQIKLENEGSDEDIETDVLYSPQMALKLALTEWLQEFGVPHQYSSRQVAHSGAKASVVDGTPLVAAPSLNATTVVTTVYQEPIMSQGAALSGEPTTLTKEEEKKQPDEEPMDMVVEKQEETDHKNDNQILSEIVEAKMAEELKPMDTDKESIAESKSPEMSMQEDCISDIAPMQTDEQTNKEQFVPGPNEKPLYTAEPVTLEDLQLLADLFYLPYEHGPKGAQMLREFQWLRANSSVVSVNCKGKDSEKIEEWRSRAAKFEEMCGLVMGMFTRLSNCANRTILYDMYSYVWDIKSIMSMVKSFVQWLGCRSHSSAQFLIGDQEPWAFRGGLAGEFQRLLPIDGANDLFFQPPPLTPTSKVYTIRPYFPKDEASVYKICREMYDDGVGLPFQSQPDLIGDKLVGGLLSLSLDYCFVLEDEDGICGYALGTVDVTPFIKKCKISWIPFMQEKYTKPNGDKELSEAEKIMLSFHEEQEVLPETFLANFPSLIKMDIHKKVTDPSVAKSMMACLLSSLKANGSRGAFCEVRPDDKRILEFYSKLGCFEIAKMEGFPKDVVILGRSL

The first assay addresses His-Tagged hOGA (human O-GlcNAcase) (Homo sapiens (Human), UniProt O60502). The assay is described as follows: Human O-GlcNAcase enzyme inhibition assay (Example B01). The class given is biochemical.
Conditions: not given
For the compound `CC(=O)Nc1cnc(N2CCN(C(C)c3ccc4c(c3)OCO4)CC2)nc1` (racemic) [Example 72, N-(2-(4-(1-(benzordlH,31dioxol-5-yl)ethyl)piperazin-1-yl)pyrimidin-5-yl)acetamide], the “OGA inhibitor activity, in words” value is recorded as “very potent OGA inhibitors”.

For the compound `C[C@@H](c1ccc2c(c1)OCO2)N1CCN(c2ncc(C3(O)CCCCC3)cn2)CC1` [Example 180, (S)-1-(2-(4-(1-(benzo[dl][1,31dioxol-5-yl)ethyl)piperazin-1-yl)pyrimidin-5-yl)cyclohexan-1-ol], the “OGA inhibitor activity, in words” value is recorded as “very potent OGA inhibitors”.

Regarding `C[C@@H](c1ccc2c(c1)OCO2)N1CCN(c2ncc(C(=O)N(C)C)cn2)CC1` [Example 137], the “OGA inhibitor activity, in words” value is “very potent OGA inhibitors”.

As to `CC(c1ccc2c(c1)OCO2)N1CCN(c2ncc(C(N)=O)s2)CC1` (racemic) [Example 48, 2-(4-(1-(Benzord1(1,3)dioxol-5-yl)ethyl)piperazin-1-yl)thiazole-5-carboxamide], the “OGA inhibitor activity, in words” value is on record as “very potent OGA inhibitors”.

As for `CNC(=O)c1cnc(N2CCN([C@@H](C)c3ccc4c(c3)OCO4)CC2)nc1` [Example 134, (S) 2-(4-(1-(benzordiri,31dioxol-5-yl)ethyl)piperazin-1-yl)-N-methylpyrimidine-5-carboxamide], the “OGA inhibitor activity, in words” value is “very potent OGA inhibitors”.

Regarding `Cc1ncc(N2CCN(C(C)c3ccc4c(c3)OCO4)CC2)s1` (racemic) [Example 37, 5-(4-(1-(Benzordiri,31dioxol-5-yl)ethyl)piperazin-1-yl)-2-methylthiazole], the “OGA inhibitor activity, in words” value was “very potent OGA inhibitors”.

Turning to `C[C@@H](c1ccc2c(c1)OCO2)N1CCN(c2ncc(C(C)(C)O)cn2)CC1` [Example 176, (S)-2-(2-(4-(1-(benzordiri,31dioxol-5-yl)ethyl)piperazin-1-yl)pyrimidin-5-yl)propan-2-ol], the “OGA inhibitor activity, in words” value is “very potent OGA inhibitors”.

Turning to `CC(=O)Nc1cnc(N2CCN(C(C)c3ccc4c(c3)OCC4)CC2)nc1` (racemic) [Example 129], the “OGA inhibitor activity, in words” value is “very potent OGA inhibitors”.

For the compound `C[C@@H](c1ccc2c(c1)OCO2)N1CCN(c2ncc(F)cn2)CC1` [Example 173, (S)-2-(4-(1-(benzofdin,31dioxol-5-yl)ethyl)piperazin-1-yl)-5-fluoropyrimidine], the “OGA inhibitor activity, in words” value is on record as “very potent OGA inhibitors”.

As for `CNC(=O)c1csc(N2CCN([C@@H](C)c3ccc4c(c3)OCO4)CC2)n1` (single isomer, unassigned) [Example 56, (/?)-2-(4-(1-(Benzordiri,31dioxol-5-yl)ethyl)piperazin-1-yl)-N-methylthiazole^4-carboxamide or ^S)-2-(4-(1-(benzordiri,31dioxol-5-yl)ethyl)piperazin-1-yl)-N-methylthiazole^4-carboxamide], the “OGA inhibitor activity, in words” value was “very potent OGA inhibitors”.

As to `C[C@@H](c1ccc2c(c1)OCO2)N1CCN(c2nc3c(s2)CNCC3)CC1` [Example 182, (S)-2-(4-(1-(benzofdlM,31dioxol-5-yl)ethyl)piperazin-1-yl)-4,5,6,7-tetrahydrothiazoloi5,4-c1pyridine], the “OGA inhibitor activity, in words” value was “very potent OGA inhibitors”.

`CC(c1ccc2c(c1)OCO2)N1CCN(c2ncc(CO)cn2)CC1` (racemic) [Example 52, (2-(4-(1-(benzordiri,31 dioxol-5-yl)ethyl)piperazin-1-yl)pyrimidin-5-yl)methanol]: the “OGA inhibitor activity, in words” value is on record as “very potent OGA inhibitors”.

In the case of `CC(=O)Nc1nnc(N2CCN(C(C)c3ccc4scnc4c3)CC2)s1` (racemic) [Example 114], the “OGA inhibitor activity, in words” value is listed as “very potent OGA inhibitors”.

Turning to `C[C@@H](c1ccc2c(c1)OCCO2)N1CCN(c2ncccn2)CC1` (single isomer, unassigned) [Example 34, (R)-2-(4-(1-(2,3-Dihydrobenzorbiri,41dioxin-6-yl)ethyl)piperazin-1-yl)pyrimidine or (S)-2-(4-(1-(2,3-Dihydrobenzorbiri^1dioxin-6-yl)ethyl)piperazin-1-yl)pyrimidine], the “OGA inhibitor activity, in words” value is on record as “very potent OGA inhibitors”.

As to `C[C@@H](c1ccc2c(c1)OCCO2)N1CCN(c2ncc(C(=O)N3CCN(C)CC3)s2)CC1` (single isomer, unassigned) [Example 75], the “OGA inhibitor activity, in words” value was “very potent OGA inhibitors”.

For the compound `CC(=O)Nc1nnc(N2CCN(C(C)c3ccc4c(c3)OCC4)CC2)s1` (racemic) [Example 128], the “OGA inhibitor activity, in words” value is “very potent OGA inhibitors”.

As to `CC(=O)Nc1cnc(N2CCN(C(C)c3ccc4scnc4c3)CC2)nc1` (racemic) [Example 116, N-(2-(4-(1-(benzord1thiazol-5-yl)ethyl)piperazin-1-yl)pyrimidin-5-yl)acetamide], the “OGA inhibitor activity, in words” value is listed as “very potent OGA inhibitors”.

Take `C[C@@H](c1ccc2c(c1)OCO2)N1CCN(c2nnc(N)s2)CC1` [Example 132, (S)-5-(4-(1-(benzordiri,31dioxol-5-yl)ethyl)piperazin-1-yl)-1,3,4-thiadiazol-2-amine]: the “OGA inhibitor activity, in words” value is “very potent OGA inhibitors”.

The assay is the same for the next values; noted with them: OGA IC50 (M), OGA enzyme inhibition assay; activity range classes.
For `CCNC(=O)c1cnc(N2CCN([C@@H](C)c3ccc4c(c3)OCO4)CC2)s1` (single isomer, unassigned) [Example 60], the IC50 – broadly, the concentration needed to halve the response being measured – is 5e-08 to 2e-07 M.

Compound `C[C@@H](c1ccc2c(c1)OCCO2)N1CCN(c2ncc(C(=O)N(C)C)s2)CC1` (single isomer, unassigned) [Example 63] had an IC50 of 1e-06 to 1e-05 M.

In turn, `C[C@@H](c1ccc2c(c1)OCCO2)N1CCN(c2ncc(C(=O)N3CCN(C)CC3)s2)CC1` (single isomer, unassigned) [Example 74] yielded an IC50 of 1e-06 to 1e-05 M.

`CC(=O)Nc1cnc(N2CCN([C@H](C)c3ccc4c(c3)OCO4)CC2)nc1` (single isomer, unassigned) [Example 77] registered an IC50 of 1e-06 to 1e-05 M.

`C[C@H](c1ccc2nccnc2c1)N1CCN(c2ncc(C(F)(F)F)cn2)CC1` (single isomer, unassigned) [Example 104, (S)-6-(1-(4-(5-(trifluoromethyl)pyrimidin-2-yl)piperazin-1-yl)ethyl)quinoxaline or (R)-6-(1-(4-(5-(trifluoromethyl)pyrimidin-2-yl)piperazin-1-yl)ethyl)quinoxaline] displayed an IC50 of 5e-08 to 2e-07 M.

`CNC(=O)c1cnc(N2CCN([C@@H](C)c3ccc4c(c3)OCO4)CC2)s1` (single isomer, unassigned) [Example 66] registered an IC50 below 5e-08 M.

`CCNC(=O)c1cnc(N2CCN([C@@H](C)c3ccc4c(c3)OCCO4)CC2)s1` (single isomer, unassigned) [Example 62, (S)-2-(4-(1-(2,3-dihydrobenzorbiri,41dioxin-6-yl)ethyl)piperazin-1-yl)-N-ethylthiazole-5-carboxamide or (R)-2-(4-(1-(2,3-dihydrobenzorblH,41dioxin-6-yl)ethyl)piperazin-1-yl)-N-ethylthiazole-5-carboxamide] displayed an IC50 of 5e-08 to 2e-07 M.

As to `COc1cc(C(C)N2CCN(c3nnc(NC(C)=O)s3)CC2)ccc1Cl` (racemic) [Example 88], the half-inhibitory concentration (IC50) lay within 1e-06 to 1e-05 M.

Regarding `C[C@@H](c1ccc2c(c1)OCCO2)N1CCN(c2ncc(C(=O)N(C)C)s2)CC1` (single isomer, unassigned) [Example 64], the IC50 is below 5e-08 M.

For the compound `CCNC(=O)c1cnc(N2CCN([C@@H](C)c3ccc4c(c3)OCO4)CC2)s1` (single isomer, unassigned) [Example 59], the IC50 fell in the range of 1e-06 to 1e-05 M.

Regarding `CNC(=O)c1cnc(N2CCN([C@@H](C)c3ccc4c(c3)OCO4)CC2)s1` (single isomer, unassigned) [Example 65], the IC50 was 1e-06 to 1e-05 M.

Regarding `C[C@@H](c1ccc2c(c1)OCCO2)N1CCN(c2ncc(C(=O)N3CCN(C)CC3)s2)CC1` (single isomer, unassigned) [Example 75], the concentration for half-maximal inhibition (IC50) is below 5e-08 M.

`Cc1csc(N2CCN([C@H](C)c3ccc4c(c3)OCO4)CC2)n1` (single isomer, unassigned) [Example 15, (R)-2-(4-(1-(benzordiri,31dioxol-5-yl)ethyl)piperazin-1-yl)-4-methylthiazole or (S)-2-(4-(1-(benzordiri,31 dioxol-5-yl)ethyl)piperazin-1-yl)-4-methylthiazole]: the IC50 was in the range of 5e-08 to 2e-07 M.

The same assay, now with this note: OGA enzyme inhibition assay; activity range classes; read-out: OGA IC50.
As for `CC(=O)NCc1csc(N2CCN(C(C)c3ccc4c(c3)OCO4)CC2)n1` (stereo not drawn) [Example 85, N-((2-(4-(1-(benzordiri,31dioxol-5-yl)ethyl)piperazin-1-yl)thiazol-4-yl)methyl)acetamide], the pIC50 (in general, −log10 of the IC50, conventionally taken in molar units) was above 7.30.

In the case of `CNC(=O)c1csc(N2CCN([C@@H](C)c3ccc4c(c3)OCO4)CC2)n1` (single isomer, unassigned) [Example 56, (/?)-2-(4-(1-(Benzordiri,31dioxol-5-yl)ethyl)piperazin-1-yl)-N-methylthiazole^4-carboxamide or ^S)-2-(4-(1-(benzordiri,31dioxol-5-yl)ethyl)piperazin-1-yl)-N-methylthiazole^4-carboxamide], the pIC50 is above 7.30.

Take `C[C@@H](c1ccc2c(c1)OCO2)N1CCN(c2nc3c(s2)CN(C)CC3)CC1` [Example 194, (S)-2-(4-(1-(benzordiri,31dioxol-5-yl)ethyl)piperazin-1-yl)-5-methyl-4,5,6,7-tetrahydrothiazoloi5,4-c1pyridine]: the pIC50 was above 7.30.

Take `CC(c1ccc2c(c1)OCO2)N1CCN(c2nc(CN)cs2)CC1` (stereo not drawn) [Example 84, (2-(4-(1-(benzordin,31 dioxol-5-yl)ethyl)piperazin-1-yl)thiazol-4-yl)methanamine]: the pIC50 was 6.70 to 7.30.

In the case of `C[C@H](O)c1cnc(N2CCN([C@@H](C)c3ccc4c(c3)OCO4)CC2)nc1` (single isomer, unassigned) [Example 198], the pIC50 was above 7.30.

As to `C[C@@H](c1ccc2c(c1)OCCO2)N1CCN(c2ncccn2)CC1` (single isomer, unassigned) [Example 34, (R)-2-(4-(1-(2,3-Dihydrobenzorbiri,41dioxin-6-yl)ethyl)piperazin-1-yl)pyrimidine or (S)-2-(4-(1-(2,3-Dihydrobenzorbiri^1dioxin-6-yl)ethyl)piperazin-1-yl)pyrimidine], the pIC50 was above 7.30.

Take `CNC(=O)c1csc(N2CCN([C@@H](C)c3ccc4c(c3)OCCO4)CC2)n1` (single isomer, unassigned) [Example 57, (R)-2-(4-(1-(2,3-dihydrobenzorbin,41dioxin-6-yl)ethyl)piperazin-1-yl)-N-methylthiazole-4-carboxamide or (S)-2-(4-(1-(2,3-dihydrobenzorbiri,41dioxin-6-yl)ethyl)piperazin-1-yl)-N-methylthiazole-4-carboxamide]: the pIC50 is above 7.30.

With `C[C@@H](c1ccc2c(c1)OCCO2)N1CCN(c2ncc(C(=O)N(C)CCN(C)C)s2)CC1` (single isomer, unassigned) [Example 71, (R)-2-(4-(1-(2,3-Dihydrobenzorb1H,41dioxin-6-yl)ethyl)piperazin-1-yl)-N-(2-(dimethylamino)ethyl)-N-methylthiazole-5-carboxamide or (S)-2-(4-(1-(2,3-dihydrobenzorbiri^1dioxin-6-yl)ethyl)piperazin-1-yl)-N-(2-(dimethylamino)ethyl)-N-methylthiazole-5-carboxamide], the pIC50 was above 7.30.

The values above are taken from patent US11046712B2, “Glycosidase inhibitors” (Asceneuron SA, priority 2014, dated 2021).
